Laboratory results reported in US7989018B2, “Fluid treatment of a polymeric coating on an implantable medical device” (Advanced Cardiovascular Systems, Inc., priority 2001, dated 2011).

Experiments:
[1] = Release of 40-O-(2-hydroxy)ethyl-rapamycin from a standard polymeric coating in release media; assay type: physicochemical; details: in about 24 hours, certain release media
[2] = Drug release from stent coatings, Vankel Bio-Dis release rate tester, HPLC; assay type: physicochemical; details: fluid-treated coating, Example 3
Description: The drug-coated stents were placed on stent holders of a Vankel Bio-Dis release rate tester (Vankel, Inc., Cary, N.C.). 3 stents from each test group were dipped into an artificial medium for about 1 hour to extract the 40-O-(2-hydroxy)ethyl-rapamycin from the stent coatings. The artificial medium included phosphate buffer saline solution (10 mM, pH 7.4) and 1% TRITON X-100 Sigma Corporation) which stabilizes the 40-O-(2-hydroxy)ethyl-rapamycin in the testing solution. Each stent was tested in a separate testing solution to prevent cross-contamination. After extraction, each of the solutions was separately analyzed for the amount of drug released from the stent coatings by high pressure liquid chromatography (HPLC). The HPLC system consisted of a Waters 2690 system. After the drug solutions were analyzed by HPLC, the results were quantified by comparing the release rate results with a reference standard.
Each of the stents was then dipped in fresh extraction solutions for another 6 hours (7 hours total). The solutions were analyzed by HPLC as described above. […] The solutions were again analyzed by HPLC as described above.
The drug release profile could then be generated by plotting cumulative drug released in the medium vs. time. The percentage of drug released at a specific time was determined by comparing the cumulative drug released with the total content data. […]

For `CO[C@H]1C[C@@H]2CC[C@@H](C)[C@@](O)(O2)C(=O)C(=O)N2CCCC[C@H]2C(=O)O[C@H]([C@H](C)C[C@@H]2CC[C@@H](OCCO)[C@H](OC)C2)CC(=O)[C@H](C)/C=C(\C)[C@@H](O)[C@@H](OC)C(=O)[C@H](C)C[C@H](C)/C=C/C=C/C=C/1C` [40-O-(2-hydroxy)ethyl-rapamycin], the “release rate from a standard polymeric coating” value [1] was “greater than 50%” and the “decrease of release rate as compared to a control group” value [2] was “about 50%”.
